Laboratory results published in PMC8580996, “2-Oxoglutarate derivatives can selectively enhance or inhibit the activity of human oxygenases” (Nature Communications, 2021).
Where “and” joins values, the source holds several entries; their conditions need not be identical. Equal values may be shown once. Read-outs that look alike come from different tables or passages of the source. One block for each molecule: values may come before it.

Experiments:
AspH [1] = target: T1, AspH (Homo sapiens, UniProt Q12797); experiment: Competition assay in a single reaction vessel, AspH-catalyzed hydroxylation (SPE-MS); assay type: biochemical
T1 construct: the tetratricopeptide repeat domain (His6-AspH315-758), was produced and purified as previously reported; made in house
T1 sequence (Q12797 315-758): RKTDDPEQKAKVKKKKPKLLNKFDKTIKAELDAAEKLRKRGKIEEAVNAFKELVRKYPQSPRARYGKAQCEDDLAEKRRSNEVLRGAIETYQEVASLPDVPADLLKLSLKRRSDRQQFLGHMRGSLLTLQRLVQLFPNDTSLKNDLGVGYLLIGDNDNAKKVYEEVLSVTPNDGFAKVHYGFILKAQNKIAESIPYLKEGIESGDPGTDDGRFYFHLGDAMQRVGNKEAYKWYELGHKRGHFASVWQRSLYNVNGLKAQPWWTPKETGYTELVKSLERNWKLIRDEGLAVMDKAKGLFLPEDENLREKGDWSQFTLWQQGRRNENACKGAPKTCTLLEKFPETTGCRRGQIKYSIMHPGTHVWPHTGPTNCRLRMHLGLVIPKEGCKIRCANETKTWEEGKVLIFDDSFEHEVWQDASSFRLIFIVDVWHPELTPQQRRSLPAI
Experimental: Mean of three independent runs (n = 3; mean ± SD). […] Cosubstrates: a 20 μM 2OG; b 20 μM 2OG; c 20 μM 1; d 20 μM 12; e 20 μM 12 and 100 μM 2OG; f 100 μM 14. Source data are provided as a Source Data file.
Mean of three independent runs (n = 3; mean ± SD). […] Source data are provided as a Source Data file.
Peptide turnover was monitored by SPE-MS using the same instrument configuration (with the exception that the peptides were eluted from the SPE cartridge with 0.1%v/v aqueous formic acid in 80/20 v/v acetonitrile/water) as described above.
FIH and AspH-catalyzed peptide hydroxylations were analyzed simultaneously using SPE-MS as described in the
Methods section; competition experiments were performed in the same reaction vessel using equimolar 2OG
oxygenase and substrate concentrations. […]
Source data are provided as a Source Data file.
FIH and AspH-catalyzed peptide hydroxylations were analyzed simultaneously using SPE-
MS as described in the Methods section; competition experiments were performed in the same reaction vessel
using equimolar 2OG oxygenase and substrate concentrations. […]
2OG, 100 μM 14. Source data are provided as a Source Data file.

FIH = FIH (Homo sapiens, UniProt Q9NWT6); experiment: SPE-MS FIH inhibition assay; assay type: biochemical; as to IC50 FIH: 0.15 µM FIH
Experimental: FIH inhibition assays were performed as described, using cosubstrate/cofactor stock solutions (L-ascorbic acid, LAA: 50 mM in MQ-grade water; 2-oxoglutarate, 2OG: 10 mM in MQ-grade water; ammonium iron(II) sulfate hexahydrate, FAS, (NH4)2Fe(SO4)2·6H2O: 400 mM in 20 mM HCl diluted to 1 mM in MQ-grade water), which were freshly prepared from commercially-sourced solids (Sigma Aldrich).
Dimethyl sulfoxide (DMSO) solutions of the 2OG derivatives were dry dispensed across 384-well polypropylene assay plates (Greiner) in an approximately threefold and 11-point dilution series (100 μM top concentration; the final DMSO assay concentration was kept constant at 0.5%v/v) using an ECHO 550 acoustic dispenser (Labcyte). […] Each reaction was performed in technical duplicates in adjacent wells of the assay plates; additionally, assays were performed in two independent duplicates on different days using different inhibitor solutions.
The Enzyme Mixture (25 μL/well), containing 0.3 μM His6-FIH in buffer (50 mM Tris, 50 mM NaCl, pH 7.5), was dispensed across the inhibitor-containing 384-well assay plates with a multidrop dispenser (ThermoFischer Scientific) at 20 °C under an ambient atmosphere. The plates were subsequently centrifuged (1000 rpm, 15 s) and incubated for 15 min at 20 °C. The Substrate Mixture (25 μL/well), containing 10.0 μM HIF-1α788–822[37] substrate, 200 μM LAA, 20.0 μM 2OG, and 20.0 μM FAS in buffer (50 mM Tris, 50 mM NaCl, pH 7.5), was added using the multidrop dispenser. The plates were centrifuged (1000 rpm, 15 s) and after incubating for 15 min, the enzyme reaction was stopped by the addition of 10%v/v aqueous formic acid (5 μL/well). The plates were then centrifuged (1000 rpm, 30 s) and analyzed by MS.
MS-analyses were performed using a RapidFire RF 365 high-throughput sampling robot (Agilent) attached to an iFunnel Agilent 6550 accurate-mass quadrupole time-of-flight mass spectrometer operated in the positive ionization mode. Assay samples were aspirated under vacuum for 0.6 s and loaded onto a C4 SPE cartridge. After loading, the C4 SPE cartridge was washed with 0.1%v/v aqueous formic acid to remove non-volatile buffer salts (5.5 s, 1.5 mL/min). […] The mass spectrometer was operated using the MassHunter Workstation B.08.00 software (Agilent), the mass spectrometer parameters were: capillary voltage (4000 V), nozzle voltage (1000 V), fragmentor voltage (365 V), gas temperature (280 °C), gas flow (13 L/min), sheath gas temperature (350 °C), sheath gas flow (12 L/min). The m/z + 2 (for CA1–20) or +3 (for HIF-1α788–822) charge states of the peptide (substrate) and the hydroxylated peptide (product) were used to extract ion chromatogram data, peak areas were integrated using RapidFire Integrator 4.3.0 (Agilent). Data were exported into Microsoft Excel and used to calculate the % conversion of the hydroxylation reaction using the equation: % conversion = 100 × (integral product peptide)/(integral substrate peptide+integral product peptide). […] Z′-factors were calculated according to the cited literature using Microsoft Excel (Supplementary Fig. 26)[83].
SPE-MS FIH inhibition assays were performed as described in the Methods section.
Tris, 50 mM NaCl, pH 7.5, 20 °C). […]

AspH [2] = target: T1, AspH; set-up: method as in PMID 34163896; details: hFX-CP101–119 substrate, 330 μM 2OG or 2OG derivative, t = 15 min; cited from earlier work
[3] = source data of Table 3, single independent replicates
[4] = source data of Table 3, single independent replicates, read-out: FIH IC50, independent replicate

Sequence of FIH (Q9NWT6 whole entry): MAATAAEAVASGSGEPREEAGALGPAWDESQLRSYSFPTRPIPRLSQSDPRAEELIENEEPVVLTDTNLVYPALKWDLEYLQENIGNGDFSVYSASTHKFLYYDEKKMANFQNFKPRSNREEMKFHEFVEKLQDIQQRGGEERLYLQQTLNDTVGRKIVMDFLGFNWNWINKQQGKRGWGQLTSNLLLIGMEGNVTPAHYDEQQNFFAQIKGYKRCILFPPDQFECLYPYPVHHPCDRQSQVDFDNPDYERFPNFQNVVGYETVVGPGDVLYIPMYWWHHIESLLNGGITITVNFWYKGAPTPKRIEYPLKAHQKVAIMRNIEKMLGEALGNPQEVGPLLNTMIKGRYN

SMILES: O=C(O)CCC(=O)C(=O)O [2OG, 2-Oxoglutarate]
substrate hydroxylation (% conversion) (AspH [1]; Fig 2b, 20 μM 2OG, AspH, 1.4395 min): 100 | substrate hydroxylation (% conversion) (AspH [1]; Fig 2b, 20 μM 2OG, AspH, 1.6805 min): 100 | substrate hydroxylation (% conversion) (AspH [1]; Fig 2b, 20 μM 2OG, AspH, 1.9205 min): 100 | substrate hydroxylation (% conversion) (AspH [1]; Fig 2b, 20 μM 2OG, AspH, 2.40217 min): 100 | substrate hydroxylation (% conversion) (AspH [1]; Fig 2b, 20 μM 2OG, AspH, 2.64367 min): 100 | substrate hydroxylation (% conversion) (AspH [1]; Fig 2b, 20 μM 2OG, AspH, 2.88417 min): 100 | substrate hydroxylation (% conversion) (AspH [1]; Fig 2b, 20 μM 2OG, AspH, 3.1255 min): 100 | substrate hydroxylation (% conversion) (AspH [1]; Fig 2b, 20 μM 2OG, AspH, 3.3665 min): 100 | substrate hydroxylation (% conversion) (AspH [1]; Fig 2b, 20 μM 2OG, AspH, 3.60917 min): 100 | AspH-catalyzed hFX-EGFD1_86–124-4Ser hydroxylation (AspH [1]; Fig 2b, 20 μM 2OG, within about 1 min): > 95% | time to apparent completion of AspH substrate hydroxylation (AspH [1]; Fig 4a, 0.5 mM 2OG, absence of 13): ~ 1 min | AspH conversion (AspH [1]; Supplementary Fig 8a, 20 μM 2OG, after 2 min): > 95%

SMILES: CC(CC(=O)O)C(=O)C(=O)O (stereo not shown) [compound 1, 3-methyl-2OG]
FIH IC50, independent replicate (FIH; [3]): not inhibiting | AspH activity, %-substrate conversion (AspH [2]): >95% | substrate hydroxylation (% conversion) (AspH [1]; Fig 2c, 20 μM 1, AspH, 3.5005 min): 100 | substrate hydroxylation (% conversion) (AspH [1]; Fig 2c, 20 μM 1, AspH, 4.20083 min): 100 | substrate hydroxylation (% conversion) (AspH [1]; Fig 2c, 20 μM 1, AspH, 5.60117 min): 100 | substrate hydroxylation (% conversion) (AspH [1]; Fig 2c, 20 μM 1, AspH, 6.29967 min): 100 | substrate hydroxylation (% conversion) (AspH [1]; Fig 2c, 20 μM 1, AspH, 7.00033 min): 100 | substrate hydroxylation (% conversion) (AspH [1]; Fig 2c, 20 μM 1, AspH, 7.7025 min): 100 | substrate hydroxylation (% conversion) (AspH [1]; Fig 2c, 20 μM 1, AspH, 8.40233 min): 100 | substrate hydroxylation (% conversion) (AspH [1]; Fig 2c, 20 μM 1, AspH, 9.10283 min): 100 | substrate hydroxylation (% conversion) (AspH [1]; Fig 2c, 20 μM 1, AspH, 9.806 min): 100 | substrate hydroxylation (% conversion) (AspH [1]; Fig 2c, 20 μM 1, AspH, […]): 100 | AspH-catalyzed hFX-EGFD1_86–124-4Ser hydroxylation (AspH [1]; Fig 2c, 20 μM 1, within ~2 min): > 95%

SMILES: CC(CC(=O)C(=O)O)C(=O)O (stereo not shown) [compound 12, 4-methyl-2OG]
FIH IC50, independent replicate (FIH; [3]): not inhibiting | AspH activity, %-substrate conversion (AspH [2]): ~10% | time to complete AspH-catalyzed hydroxylation of hFX-EGFD1_86–124-4Ser (AspH [1]; Fig 2e, 20 μM 12 and 100 μM 2OG): ~ 2 min | substrate hydroxylation (% conversion) (AspH [1]; Fig 2e, 20 μM 12 and 100 μM 2OG, AspH, 1.918 min): 100 | substrate hydroxylation (% conversion) (AspH [1]; Fig 2e, 20 μM 12 and 100 μM 2OG, AspH, 2.15883 min): 100 | substrate hydroxylation (% conversion) (AspH [1]; Fig 2e, 20 μM 12 and 100 μM 2OG, AspH, 2.6405 min): 100 | substrate hydroxylation (% conversion) (AspH [1]; Fig 2e, 20 μM 12 and 100 μM 2OG, AspH, 2.88117 min): 100 | substrate hydroxylation (% conversion) (AspH [1]; Fig 2e, 20 μM 12 and 100 μM 2OG, AspH, 3.12267 min): 100 | substrate hydroxylation (% conversion) (AspH [1]; Fig 2e, 20 μM 12 and 100 μM 2OG, AspH, 3.36583 min): 100 | substrate hydroxylation (% conversion) (AspH [1]; Fig 2e, 20 μM 12 and 100 μM 2OG, AspH, 3.60733 min): 100 | substrate hydroxylation (% conversion) (AspH [1]; Fig 2e, 20 μM 12 and 100 μM 2OG, AspH, […]): 100 | AspH-catalyzed hFX-EGFD1_86–124-4Ser hydroxylation (AspH [1]; Fig 2d, 20 μM 12, after ~10 min): ~ 90%

SMILES: CCC(CC(=O)C(=O)O)C(=O)O (stereo not shown) [compound 14, 4-ethyl-2OG]
IC50 (FIH; […] FIH, 5.0 μM HIF-1α788-822, 10 μM 2OG, mean of two runs, read-out: IC50 FIH): 19.3 µM | IC50 (FIH; [4]): 27.8 µM and 13.3 µM and 16.6 µM | AspH activity, %-substrate conversion (AspH [2]): <1% | AspH-catalyzed hydroxylation of hFX-EGFD1_86–124-4Ser (AspH [1]; Fig 2f, 100 μM 14, absence of 2OG): not observed | AspH catalysis (AspH [1]; Supplementary Fig 27, tenfold excess of 14 over 100 μM 2OG): entirely suppressed

More lines, main results first:

IC50 (FIH; [4]): 0.864 µM and 0.923 µM
SMILES: O=C(O)C(=O)CC(CCCc1ccccc1)C(=O)O (stereo not shown) [compound 18, 4-(3-phenylpropyl)-2OG]
AspH activity, %-substrate conversion (AspH [2]): <1%

IC50 FIH (FIH; […] FIH, 5.0 μM HIF-1α788-822, 10 μM 2OG, mean of two runs): inactive
SMILES: O=C(O)C(=O)C1CCC(C(=O)O)C1 (stereo not shown) [compound 22, 3-(carboxycarbonyl)cyclopentane-1-carboxylic acid]
AspH activity, %-substrate conversion (AspH [2]): ~15%
